Patent publication US10745396B2, “Pesticidally active polycyclic derivatives with sulfur containing substituents” (Syngenta Participations AG, priority 2015, dated 2020)

Experiments:
Type in all cases: in vivo
[1] = tested on: Spodoptera littoralis (Egyptian Cotton Leaf Worm); assay: Spodoptera littoralis, uptake by lettuce roots from agar, eggs; conditions: 144 h, test rate of 12.5 ppm, 6 days after infestation, read-out: effect in at least one of the three categories (mortality, anti-feeding, or growth inhibition)
Excerpt: Example B9: Spodoptera littoralis (Egyptian Cotton Leaf Worm)
Test compounds were applied by pipette from 10′000 ppm DMSO stock solutions into 24-well plates and mixed with agar. Lettuce seeds were placed onto the agar and the multi well plate was closed by another plate which contained also agar. After 7 days the compound was absorbed by the roots and the lettuce grew into the lid plate. The lettuce leaves were then cut off into the lid plate. Spodoptera eggs were pipetted through a plastic stencil onto a humid gel blotting paper and the lid plate was closed with it. The samples were assessed for mortality, anti-feedant effect and growth inhibition in comparison to untreated samples 6 days after infestation.

[2] = tested on: Spodoptera littoralis (Egyptian Cotton Leaf Worm); assay: Spodoptera littoralis, cotton leaf discs, L1 larvae; conditions: foliar, 72 h, application rate of 200 ppm, 3 days after infestation
Description: Example B8: Spodoptera littoralis (Egyptian Cotton Leaf Worm)
Cotton leaf discs were placed onto agar in 24-well microtiter plates and sprayed with aqueous test solutions prepared from 10′000 ppm DMSO stock solutions. After drying the leaf discs were infested with five L1 larvae. The samples were assessed for mortality, anti-feeding effect, and growth inhibition in comparison to untreated samples 3 days after infestation. Control of Spodoptera littoralis by a test sample is given when at least one of the categories mortality, anti-feedant effect, and growth inhibition is higher than the untreated sample.

[3] = tested on: Plutella xylostella (Diamond Back Moth); assay: Plutella xylostella, artificial diet, L2 larvae; conditions: 120 h, application rate of 200 ppm, 5 days after infestation, read-out: effect in at least one of the two categories (mortality or growth inhibition)
Description: Example B7: Plutella xylostella (Diamond Back Moth)
(§1) 24-well microtiter plates with artificial diet were treated with aqueous test solutions prepared from 10′000 ppm DMSO stock solutions by pipetting. After drying, the plates were infested with L2 larvae (10 to 15 per well). The samples were assessed for mortality and growth inhibition in comparison to untreated samples 5 days after infestation.

[4] = tested on: Diabrotica balteata (Corn Root Worm); assay: Diabrotica balteata, maize sprouts on agar, L2 larvae; conditions: 96 h, application rate of 200 ppm, 4 days after infestation, read-out: effect in at least one of the two categories (mortality or growth inhibition)
Description: Example B2: Diabrotica balteata (Corn Root Worm)
as §1, with “Maize sprouts placed onto an agar layer in 24-well” for “24-well”, “plates” for “plates with artificial diet”, “spraying.” for “pipetting.”, “(6” for “(10”, “10” for “15”, “4” for “5”

[5] = tested on: Euschistus heros (Neotropical Brown Stink Bug); assay: Euschistus heros, soybean leaves on agar, N2 nymphs; conditions: 120 h, application rate of 200 ppm, 5 days after infestation, read-out: effect in at least one of the two categories (mortality or growth inhibition)
Description: Example B3: Euschistus heros (Neotropical Brown Stink Bug)
Soybean leaves on agar in 24-well microtiter plates were sprayed with aqueous test solutions prepared from 10′000 ppm DMSO stock solutions. After drying the leaves were infested with N2 nymphs. The samples were assessed for mortality and growth inhibition in comparison to untreated samples 5 days after infestation.

[6] = tested on: Myzus persicae (Green Peach Aphid); assay: Myzus persicae feeding/contact activity, sunflower leaf discs; conditions: foliar, 144 h, application rate of 200 ppm, 6 days after infestation
Description: Example B5: Myzus persicae (Green Peach Aphid): Feeding/Contact Activity
Sunflower leaf discs were placed onto agar in a 24-well microtiter plate and sprayed with aqueous test solutions prepared from 10′000 ppm DMSO stock solutions. After drying, the leaf discs were infested with an aphid population of mixed ages. The samples were assessed for mortality 6 days after infestation.

CCn1c(C(F)(F)F)cc2nc(-c3nc(-c4ccc(OC(F)(F)F)cc4)ccc3S(=O)(=O)CC)n(C)c2c1=O [Compound P22]
≥ 80%: percent effect (mortality, anti-feeding or growth inhibition) at 12.5 ppm [1] | percent control (mortality, anti-feedant effect or growth inhibition) at 200 ppm [2] | percent effect (mortality or growth inhibition) at 200 ppm [3] | percent effect (mortality or growth inhibition) at 200 ppm [4] | percent effect (mortality or growth inhibition) at 200 ppm [5]

CCn1c(C(F)(F)F)cc2nc(-c3nc(-c4ccc(Cl)c(C)c4)ccc3S(=O)(=O)CC)n(C)c2c1=O [Compound P24]
≥ 80%: percent control (mortality, anti-feedant effect or growth inhibition) at 200 ppm [2] | percent effect (mortality or growth inhibition) at 200 ppm [3] | percent effect (mortality or growth inhibition) at 200 ppm [4]

CCn1c(C(F)(F)F)cc2nc(-c3nc(-c4ccc(F)c(F)c4)ccc3S(=O)(=O)CC)n(C)c2c1=O [Compound P34]
≥ 80%: percent control (mortality, anti-feedant effect or growth inhibition) at 200 ppm [2] | percent effect (mortality or growth inhibition) at 200 ppm [3] | percent effect (mortality or growth inhibition) at 200 ppm [4]

CCn1c(C(F)(F)F)cc2nc(-c3nc(-c4ccc(Cl)c(Cl)c4)ccc3S(=O)(=O)CC)n(C)c2c1=O [Compound P10]
≥ 80%: percent control (mortality, anti-feedant effect or growth inhibition) at 200 ppm [2] | percent effect (mortality or growth inhibition) at 200 ppm [3] | percent effect (mortality or growth inhibition) at 200 ppm [4]

CCS(=O)(=O)c1ccc(-c2cc(F)cc(F)c2)nc1-c1nc2cc(C(F)(F)F)n(C3CC3)c(=O)c2n1C [Compound P41]
≥ 80%: percent effect (mortality, anti-feeding or growth inhibition) at 12.5 ppm [1] | percent control (mortality, anti-feedant effect or growth inhibition) at 200 ppm [2] | percent effect (mortality or growth inhibition) at 200 ppm [3] | percent effect (mortality or growth inhibition) at 200 ppm [4]

CCn1c(C(F)(F)F)cc2nc(-c3nc(-c4cc(F)cc(Cl)c4)ccc3S(=O)(=O)CC)n(C)c2c1=O [Compound P19]
≥ 80%: percent control (mortality, anti-feedant effect or growth inhibition) at 200 ppm [2] | percent effect (mortality or growth inhibition) at 200 ppm [3] | percent effect (mortality or growth inhibition) at 200 ppm [4]

CCn1c(C(F)(F)F)cc2nc(-c3nc(-c4ccc(OC)c(F)c4)ccc3S(=O)(=O)CC)n(C)c2c1=O [Compound P23]
≥ 80%: percent control (mortality, anti-feedant effect or growth inhibition) at 200 ppm [2] | percent effect (mortality or growth inhibition) at 200 ppm [3] | percent effect (mortality or growth inhibition) at 200 ppm [4] | mortality at 200 ppm [6] | percent effect (mortality or growth inhibition) at 200 ppm [5]

C/C=C/c1ccc(S(=O)(=O)CC)c(-c2nc3cc(C(F)(F)F)n(CC)c(=O)c3n2C)n1 [Compound P25]
≥ 80%: percent control (mortality, anti-feedant effect or growth inhibition) at 200 ppm [2] | percent effect (mortality or growth inhibition) at 200 ppm [4] | mortality at 200 ppm [6]

CCn1c(C(F)(F)F)cc2nc(-c3nc(-c4cccc(Cl)c4)ccc3S(=O)(=O)CC)n(C)c2c1=O [Compound P17]
≥ 80%: percent control (mortality, anti-feedant effect or growth inhibition) at 200 ppm [2] | percent effect (mortality or growth inhibition) at 200 ppm [3] | percent effect (mortality or growth inhibition) at 200 ppm [4] | mortality at 200 ppm [6] | percent effect (mortality or growth inhibition) at 200 ppm [5]

CCn1c(C(F)(F)F)cc2nc(-c3nc(-c4ccc(F)cc4)ccc3S(=O)(=O)CC)n(C)c2c1=O [Compound P26]
≥ 80%: percent control (mortality, anti-feedant effect or growth inhibition) at 200 ppm [2] | percent effect (mortality or growth inhibition) at 200 ppm [3]

CCn1c(C(F)(F)F)cc2nc(-c3nc(-c4ccccc4)ccc3S(=O)(=O)CC)n(C)c2c1=O [Compound P18]
≥ 80%: percent effect (mortality, anti-feeding or growth inhibition) at 12.5 ppm [1] | percent control (mortality, anti-feedant effect or growth inhibition) at 200 ppm [2] | percent effect (mortality or growth inhibition) at 200 ppm [3] | percent effect (mortality or growth inhibition) at 200 ppm [4] | mortality at 200 ppm [6] | percent effect (mortality or growth inhibition) at 200 ppm [5]

CCn1c(C(F)(F)F)cc2nc(-c3nc(-c4ccc(C(F)(F)F)cc4F)ccc3S(=O)(=O)CC)n(C)c2c1=O [Compound P33]
≥ 80%: percent control (mortality, anti-feedant effect or growth inhibition) at 200 ppm [2] | percent effect (mortality or growth inhibition) at 200 ppm [3] | percent effect (mortality or growth inhibition) at 200 ppm [4]

CCn1c(C(F)(F)F)cc2nc(-c3nc(-c4ccc(C#N)cc4)ccc3S(=O)(=O)CC)n(C)c2c1=O [Compound P15]
≥ 80%: percent effect (mortality, anti-feeding or growth inhibition) at 12.5 ppm [1] | percent control (mortality, anti-feedant effect or growth inhibition) at 200 ppm [2] | percent effect (mortality or growth inhibition) at 200 ppm [3] | percent effect (mortality or growth inhibition) at 200 ppm [4] | percent effect (mortality or growth inhibition) at 200 ppm [5]

CCn1c(C(F)(F)F)cc2nc(-c3nc(-c4cncs4)ccc3S(=O)(=O)CC)n(C)c2c1=O [Compound P31]
≥ 80%: percent control (mortality, anti-feedant effect or growth inhibition) at 200 ppm [2] | percent effect (mortality or growth inhibition) at 200 ppm [3] | percent effect (mortality or growth inhibition) at 200 ppm [4] | mortality at 200 ppm [6]

CCS(=O)(=O)c1ccc(-n2cc(Cl)cn2)nc1-c1nc2cc(C(F)(F)F)n(C)c(=O)c2n1C [Compound P7, 2-[6-(4-chloropyrazol-1-yl)-3-ethylsulfonyl-2-pyridyl]-3,5-dimethyl-6-(trifluoromethyl)imidazo[4,5-c]pyridin-4-one]
≥ 80%: percent control (mortality, anti-feedant effect or growth inhibition) at 200 ppm [2]

CCn1c(C(F)(F)F)cc2nc(-c3nc(-c4cc(C(F)(F)F)cc(C(F)(F)F)c4)ccc3S(=O)(=O)CC)n(C)c2c1=O [Compound P36]
≥ 80%: percent control (mortality, anti-feedant effect or growth inhibition) at 200 ppm [2] | percent effect (mortality or growth inhibition) at 200 ppm [3] | percent effect (mortality or growth inhibition) at 200 ppm [4]

CCn1c(C(F)(F)F)cc2nc(-c3nc(-c4ccc(C(F)(F)F)cc4)ccc3S(=O)(=O)CC)n(C)c2c1=O [Compound P2, 5-ethyl-2-[3-ethylsulfonyl-6-[4-(trifluoromethyl)phenyl]-2-pyridyl]-3-methyl-6-(trifluoromethyl)imidazo[4,5-c]pyridin-4-one]
≥ 80%: percent control (mortality, anti-feedant effect or growth inhibition) at 200 ppm [2] | percent effect (mortality or growth inhibition) at 200 ppm [3] | percent effect (mortality or growth inhibition) at 200 ppm [4] | percent effect (mortality or growth inhibition) at 200 ppm [5]

CCn1c(C(F)(F)F)cc2nc(-c3nc(-c4ccsc4)ccc3S(=O)(=O)CC)n(C)c2c1=O [Compound P27]
≥ 80%: percent control (mortality, anti-feedant effect or growth inhibition) at 200 ppm [2]

CCn1c(C(F)(F)F)cc2nc(-c3nc(C4CC4)ccc3S(=O)(=O)CC)n(C)c2c1=O [Compound P39]
≥ 80%: percent effect (mortality, anti-feeding or growth inhibition) at 12.5 ppm [1] | percent control (mortality, anti-feedant effect or growth inhibition) at 200 ppm [2] | percent effect (mortality or growth inhibition) at 200 ppm [3] | percent effect (mortality or growth inhibition) at 200 ppm [4] | mortality at 200 ppm [6] | percent effect (mortality or growth inhibition) at 200 ppm [5]

CCn1c(C(F)(F)F)cc2nc(-c3nc(-c4cccnc4)ccc3S(=O)(=O)CC)n(C)c2c1=O [Compound P30]
≥ 80%: percent control (mortality, anti-feedant effect or growth inhibition) at 200 ppm [2] | percent effect (mortality or growth inhibition) at 200 ppm [3] | percent effect (mortality or growth inhibition) at 200 ppm [4] | mortality at 200 ppm [6] | percent effect (mortality or growth inhibition) at 200 ppm [5]

CCn1c(C(F)(F)F)cc2nc(-c3nc(-c4ccc(Cl)cc4Cl)ccc3S(=O)(=O)CC)n(C)c2c1=O [Compound P32]
≥ 80%: percent control (mortality, anti-feedant effect or growth inhibition) at 200 ppm [2] | percent effect (mortality or growth inhibition) at 200 ppm [3] | percent effect (mortality or growth inhibition) at 200 ppm [4]

CCS(=O)(=O)c1ccc(-n2cc(C(F)(F)F)cn2)nc1-c1nc2cc(C(F)(F)F)n(C)c(=O)c2n1C [Compound P9]
≥ 80%: percent control (mortality, anti-feedant effect or growth inhibition) at 200 ppm [2] | percent effect (mortality or growth inhibition) at 200 ppm [3] | percent effect (mortality or growth inhibition) at 200 ppm [4] | percent effect (mortality or growth inhibition) at 200 ppm [5]

CCn1c(C(F)(F)F)cc2nc(-c3nc(-c4cc(F)c(F)c(F)c4)ccc3S(=O)(=O)CC)n(C)c2c1=O [Compound P35]
≥ 80%: percent control (mortality, anti-feedant effect or growth inhibition) at 200 ppm [2] | percent effect (mortality or growth inhibition) at 200 ppm [3] | percent effect (mortality or growth inhibition) at 200 ppm [4] | percent effect (mortality or growth inhibition) at 200 ppm [5]
